Laboratory results from PMC11352945, “Anticancer Activity of Benzo[a]phenoxazine Compounds Promoting Lysosomal Dysfunction” (Cells, 2024).
Values after ≈ are worked out from the molar mass of the structure shown.

How the values were obtained:
NCM460 cells = assay: Sulforhodamine B (SRB) cell viability assay, NCM460; format: cell-based; details: Homo sapiens, non-neoplastic cell line, 48 h, read-out: IC50 (μM) ± SD, NCM460
Procedure: (§1) The cells were allowed to adhere overnight, from 12 h to 18 h, and then treated with increasing concentrations of each compound, C9, A36, and A42 (0.125 μM, 0.25 μM, 0.5 μM, 1 μM, 2.5 μM, and 5 μM), in their respective culture mediums for 48 h. In addition to a negative control that consisted only of cells and growth medium, a negative control containing the highest concentration of the solvent in which the compound was dissolved (DMSO 0.1%) was also used. The SRB assay was performed according to Marques et al.. The IC50 values were obtained using GraphPad Prism version 8.2.1 through the application of a sigmoidal dose–response nonlinear regression, after logarithmic transformation. The selectivity index was determined by dividing the IC50 value of the non-neoplastic BJ-5ta cell line by the IC50 value of the cancer cell lines (IC50 BJ-5ta/IC50 cancer cell line); furthermore, for the CRC model, a second selectivity index was also determined using the non-neoplastic NCM460 cell line (IC50 NCM460/IC50 CRC cell line). According to the results of the selectivity index, the cell line with the highest selectivity value for each of the models, CRC and breast, was selected for subsequent characterization.
(§2) Three CRC-derived cell lines, SW480 (KRAS^G12V), HCT116 (KRAS^G13D), and RKO (BRAF^V600E), harboring somatic mutations on KRAS or BRAF, and two breast-cancer-derived cell lines, MDA-MB-231 (basal like) and MCF7 (luminal A subtype), together with two non-neoplastic cell lines, NCM460 (normal colon mucosal epithelial cell line) and BJ-5ta (normal foreskin fibroblast cell line), were used to study the activity and selectivity of the three new benzo[a]phenoxazine compounds, C9, A36, and A42. All cell lines were treated with a range of drug concentrations (0.125 μM, 0.25 μM, 0.5 μM, 1 μM, 2.5 μM, and 5 μM) for 48 h, and the effect on cell viability was assessed using a sulforhodamine B assay (SRB) (Figure 2). […] In addition, the selectivity index was determined using the BJ-5ta cell line as a reference, as well as the NCM460 cell line for the CRC model (Table 1).

HCT116 cells = assay: Sulforhodamine B (SRB) cell viability assay, HCT116; format: cell-based; details: Homo sapiens, HCT-116, CRC cell line, 48 h, read-out: IC50 (μM) ± SD, HCT116
Procedure: as §1, §2

MCF7 cells [1] = assay: Sulforhodamine B (SRB) cell viability assay, MCF7; format: cell-based; details: Homo sapiens, breast cancer cell line, 48 h, read-out: IC50 (μM) ± SD, MCF7
Procedure: as §1, §2

MDA-MB-231 cells = assay: Sulforhodamine B (SRB) cell viability assay, MDA-MB-231; format: cell-based, human
Procedure: as §1
Three CRC-derived cell lines, SW480 (KRAS^G12V), HCT116 (KRAS^G13D), and RKO (BRAF^V600E), harboring somatic mutations on KRAS or BRAF, and two breast-cancer-derived cell lines, MDA-MB-231 (basal like) and MCF7 (luminal A subtype), together with two non-neoplastic cell lines, NCM460 (normal colon mucosal epithelial cell line) and BJ-5ta (normal foreskin fibroblast cell line), were used to study the activity and selectivity of the three new benzo[a]phenoxazine compounds, C9, A36, and A42. All cell lines were treated with a range of drug concentrations (0.125 μM, 0.25 μM, 0.5 μM, 1 μM, 2.5 μM, and 5 μM) for 48 h, and the effect on cell viability was assessed using a sulforhodamine B assay (SRB) (Figure 2). The results were used to determine the IC50 value of each compound for all the cell lines (Table 1). In addition, the selectivity index was determined using the BJ-5ta cell line as a reference, as well as the NCM460 cell line for the CRC model (Table 1).

RKO cells [2] = assay: Lysosomal membrane permeabilization (acridine orange, flow cytometry), RKO; format: cell-based, human; details: 4 × IC50, 48 h
Procedure: (§3) RKO and MCF7 lysosomal membrane permeabilization (LMP) was evaluated through flow cytometry using the Acridine Orange (A.O) probe. RKO and MCF7 cells were seeded in 12-well plates at a density of 1 × 10^5 cells/mL. After 24 h, the cells were treated with the compounds C9, A36, and A42 at 2 × IC50 and 4 × IC50 concentrations or 0.1% DMSO (vehicle). As a control, untreated cells were employed. Following a 48 h period, the adherent and floating cells were collected and subjected to a 15-min dark incubation period at 37 °C with 1 μM A.O. After that, the samples were examined by flow cytometry using the PC5.5 channel.
(§4) Following the information obtained with the lead compound and considering the microscopic observations made with these new compounds, we next investigated whether their toxicity was also associated with lysosome targeting. To this end, we evaluated the induction of lysosomal membrane permeabilization (LMP) by flow cytometry, using acridine orange (AO) as probe. This probe allows for an assessment of permeabilization, as its fluorescence decreases upon the release of lysosomal protons. […] The cells that presented decreased AO fluorescence were considered to have permeabilized lysosomes.

MCF7 cells [3] = assay: Lysosomal membrane permeabilization (acridine orange, flow cytometry), MCF7; format: cell-based, human; details: MCF7, 4 × IC50, 48 h
Procedure: as §3, §4

RKO cells [4] = assay: ROS levels (DHE, flow cytometry), RKO; format: cell-based, human; details: 2 × IC50 and 4 × IC50, 48 h
Procedure: (§5) The RKO and MCF7 ROS levels were evaluated through flow cytometry using the dihydroethidium (DHE) probe. RKO and MCF7 cells were seeded in 12-well plates at a density of 1 × 10^5 cells/mL. After 24 h, the cells were treated with the compounds C9, A36, and A42 at 2 × IC50 and 4 × IC50 concentrations or 0.1% DMSO (vehicle). As a control, untreated cells were used. The cells were collected after 48 h of treatment, washed with PBS 1×, and stained for 30 min at 37 °C in the dark using 0.5 μM DHE. The DHE mean fluorescence intensity was analyzed by flow cytometry using the PE-A channel.
(§6) Since ROS generation is reported to precede LMP and cell death, and in view of reports showing that some compounds of this family increase intracellular ROS levels under certain circumstances, we also investigated whether C9, A36, and A42 had any effects in this regard.

MCF7 cells [5] = assay: ROS levels (DHE, flow cytometry), MCF7; format: cell-based, human; details: MCF7, 2 × IC50 and 4 × IC50, 48 h
Procedure: as §5, §6

S. cerevisiae = details: yeast S. cerevisiae, microdilution; cited from earlier work

IC50 (HCT116 cells): 1.64 ± 0.09 µM | IC50 (MCF7 cells [1]): 0.84 ± 0.06 µM | IC50 (MDA-MB-231 cells; Homo sapiens, MDA-MB-231, breast cancer cell line, 48 h, SRB, read-out: IC50 (μM) ± SD, MDA-MB-231): 1.19 ± 0.05 µM
Structure (SMILES): CCCNc1cc2oc3cc(=NCC)c(C)cc-3nc2c2ccccc12 [C9]
IC50 (NCM460 cells): 1.12 ± 0.13 µM | Selectivity Index Cell Line IC50/BJ-5ta IC50 (MDA-MB-231 cells; MDA-MB-231 versus BJ-5ta): 2.14 | Percentage of cells with LMP (permeabilized lysosomes) (RKO cells [2]): more than 80% | Percentage of cells with LMP (permeabilized lysosomes) (MCF7 cells [3]): more than 80% | ROS levels (fluorescence mean of DHE) (RKO cells [4]): higher intensity | ROS levels (fluorescence mean of DHE) (MCF7 cells [5]): higher intensity | MIC (minimum inhibitory concentration) (S. cerevisiae): 6.25 µM (≈ 2.16 µg/mL)
